The results in this text go back to patent EP1243590A2, “Nucleotide analog composition and synthesis method” (GILEAD SCIENCES, INC., priority 1997, dated 1999).

Structures can show the parent of a compound that is named as a salt.

Series [1] can be described thus: Solid state chemical stability on storage at elevated temperature and relative humidity. The note with it: for bis(POC) PMPA citrate% / mono(POC) PMPA citrate% / BPPF% / mono(POC) PMPA fumarate%: 0 days; for mono(POC) PMPA fumarate%: degradation product in stored BPPF. The format is physicochemical. From the text: The solid state chemical stability of cBPPF and bis(POC)PMPA·citrate salt was compared by analyzing each compound after storage under different conditions.

The conditions of series [2]: human, in vivo.
Series [3] in a line: Hygroscopicity at 92% relative humidity. As to conditions: room temperature, up to 37 days. Type of series: physicochemical.

As to `CC(C)OC(=O)OCOP(=O)(CO[C@H](C)Cn1cnc2c(N)ncnc21)OCOC(=O)OC(C)C` [bis(POC) PMPA citrate], the “bis(POC) PMPA citrate%” value in series [1] (40°C, 75% relative humidity) came to 99.0%; in series [1] (60°C, 75% relative humidity), 99.0%. Moreover, the “mono(POC) PMPA citrate%” value in series [1] (40°C, 75% relative humidity, degradation product in stored citrate salt) is 1.0%; in series [1] (60°C, 75% relative humidity, degradation product in stored citrate salt) it was 1.0%. In series [1] (solid, 75% rh, 40°C, 75% relative humidity, 14 days, read-out: bis(POC) PMPA citrate%), the remaining at 336 h was determined as 96.9%. Moreover, in series [1] (solid, 75% rh, 40°C, 75% relative humidity, 30 days, read-out: bis(POC) PMPA citrate%), the remaining at 720 h came to 92.9%. The remaining at 1440 h in series [1] (solid, 75% rh, 40°C, 75% relative humidity, 60 days, read-out: bis(POC) PMPA citrate%) was found to be 77.6%. Besides, the remaining at 72 h in series [1] (solid, 75% rh, 60°C, 75% relative humidity, 3 days, read-out: bis(POC) PMPA citrate%) was determined as 24%. The remaining at 168 h in series [1] (solid, 75% rh, 60°C, 75% relative humidity, 7 days, read-out: bis(POC) PMPA citrate%) was 6.7%. For the same compound, the degraded at 336 h in series [1] (solid, 40°C, 75% relative humidity, 14 days, degradation product in stored citrate salt, read-out: mono(POC) PMPA citrate%) stood at 3.1%. The degraded at 720 h in series [1] (solid, 40°C, 75% relative humidity, 30 days, degradation product in stored citrate salt, read-out: mono(POC) PMPA citrate%) came out at 7.1%. Further, the degraded at 1440 h in series [1] (solid, 40°C, 75% relative humidity, 60 days, degradation product in stored citrate salt, read-out: mono(POC) PMPA citrate%) is 22.4%. In series [1] (solid, 60°C, 75% relative humidity, 3 days, degradation product in stored citrate salt, other products were generated in addition, read-out: mono(POC) PMPA citrate%), the degraded at 72 h came out at 58.9%. Besides, the degraded at 168 h in series [1] (solid, 60°C, 75% relative humidity, 7 days, degradation product in stored citrate salt, other products were generated in addition, read-out: mono(POC) PMPA citrate%) worked out at 76.2%.
As for “9-[2-(R)-[[bis[[(isopropoxycarbonyl)oxy]methoxy] phosphinoyl]methoxy]propyl]-adenine•fumaric acid (1:1) [BPPF]”, the BPPF% in series [1] (40°C, 75% relative humidity) was 99.0%; in series [1] (60°C, 75% relative humidity), 99.0%. The “mono(POC) PMPA fumarate%” value in series [1] (40°C, 75% relative humidity) amounted to 1.0%; in series [1] (60°C, 75% relative humidity), 1.0%. Further, in series [1] (storage at elevated temperature and relative humidity), the “solid state chemical stability compared with bis(POC)PMPA citrate salt” value is “more stable”. Moreover, the oral bioavailability in series [2] is 30-40%. Moreover, the hygroscopicity entry in series [3] is listed as “not hygroscopic”.
